Where no end group is shown, it is not given here.
tested on: anti-Porphyomonas gingivalis fimbria antibodies contained in sera of patients with periodontal disease; assay: Assay of the specific antibody in serum using plates coated with peptide-modified BSA (ELISA); format: binding, human; conditions: average absorbance (405 nm) of 3 specimens, serum diluted 100 times
Method: One mg of each peptide synthesized in Example 2 was dissolved in 1 ml of 0.1 M phosphate buffered saline (PBS, pH 6.0), 5 mg of sulfated SMCC (made by Pierce Co.) was added, and the mixture was incubated at 30° C. for 30 minutes to conduct maleimidization, and then subjected to Sephadex G-10 column chromatography, and the first eluate fraction was collected. 7 mg of bovine serum albumin (BSA: made by Wako Pure Chemical Industries, Ltd.) was dissolved in 1 ml of 0.1 M phosphate buffer (pH 6.0), 10 mM EDTA, the solution was mixed with the above maleimidized peptide, and the mixture was subjected to reaction at 30° C. for 1 hour. The resultant peptide-modified BSA was subjected to Sephadex G-50 column chromatography, and the first eluate fraction was collected as a plate-preparing antigen solution.
Then, six kind of peptides were synthesized after the process of Example 2, and a plate-preparing antigen solution was similarly prepared as a control.
Each of the resultant antigen solutions was diluted with 0.1 M carbonate buffer (pH 9.6), 150 mM NaCl to give 100 ml of a solution. 10 μl/well of the solution was put in a polystyrene-made microtiter plate (Immunoplate II; maxisorp type; made by Nunc Co.) and left alone at 4° C. overnight, and washing was conducted three times each with 200 μl/well of PBS, using a microtiter automatic washer (hereafter abbreviated as washer; made by Bio-Rad Laboratories). 250 μl/well of PBS containing 0.1% gelatin (made by Nitta Gelatin Co., Ltd.) was added and the mixture was allowed to stand at 4° C. overnight to block the plate. The blocking solution was removed by absorption, and the plate was dried by a vacuum dryer, put in an aluminum bag, and after sealing the bag, kept at 4° C. for the following assay.
Sera of patients of periodontal disease (n=3) and normal subjects (n=3) were used as samples, and each serum was diluted 100 times with PBS containing 10% bovine serum. 100 μl portions of these dilutions were added to the plates coated with various antigens, respectively, and incubation was conducted at 37° C. for 1 hour. Each plate was washed three times with 200 μl of PBST using the washer, 100 μl of a commercially available […] (diluted 10^3 times)/0.1% Casein/PBST was added as a secondary antibody, and incubation was conducted again at 37° C. for 1 hour. The plate was washed in the same manner as above, 100 μl of an o-phenylenediamine solution was added, incubation was conducted at 37° C. for 30 minutes, 100 μl of 0.1 N sulfuric acid was added to stop the reaction, and then, absorbance (405 nm) was measured by a microplate reader (made by Bio-Rad Laboratories) using the reaction well of no addition of the specimen as a control. The measures values are average absorbances of 3 specimens each of the patient group of periodontal disease and the normal subject group.

Substance | Antibody titer, Normal subject group | Antibody titer, Patient group with peridontal disease
DANYLTGSLT [Comparative peptide, reference compound] | 0.145 | 0.196
LCVYGKLQKN [Comparative peptide, reference compound] | 0.213 | 0.182
NHIENDPLKI [Comparative peptide, reference compound] | 0.201 | 0.205
Peptide 2: synthetic peptide, epitope of the 41 kD fimbrial subunit protein of Porphyomonas gingivalis; sequence in Table 1, not shown (EVKALTTELT) | 0.205 | 0.566
Peptide 3: synthetic peptide, epitope of the 41 kD fimbrial subunit protein of Porphyomonas gingivalis; sequence in Table 1, not shown (AENQEAAGLI) | 0.214 | 0.623
Peptide 4: synthetic peptide, epitope of the 41 kD fimbrial subunit protein of Porphyomonas gingivalis; sequence in Table 1, not shown (AAGLIMTAEP) | 0.197 | 0.941
Peptide 5: synthetic peptide, epitope of the 41 kD fimbrial subunit protein of Porphyomonas gingivalis; sequence in Table 1, not shown (TGSLTTFNGA) | 0.165 | 0.760
Peptide 6: synthetic peptide, epitope of the 41 kD fimbrial subunit protein of Porphyomonas gingivalis; sequence in Table 1, not shown (TFNGAYTPAN) | 0.141 | 0.675
Peptide 8: synthetic peptide, epitope of the 41 kD fimbrial subunit protein of Porphyomonas gingivalis; sequence in Table 1, not shown (ANGGTIHPTI) | 0.182 | 0.935
Peptide 9: synthetic peptide, epitope of the 41 kD fimbrial subunit protein of Porphyomonas gingivalis; sequence in Table 1, not shown (EGKTYYPVLV) | 0.186 | 0.546
RTLVVMANTG [Comparative peptide, reference compound] | 0.161 | 0.199
VMVYNGEQQE [Comparative peptide, reference compound] | 0.172 | 0.165
WLSRNYVAPA [Comparative peptide, reference compound] | 0.204 | 0.210

tested on: fimbrial protein of Porphyomonas gingivalis; assay: Immunization of mice with the peptides: antibody titer in serum or saliva by ELISA; format: in vivo; conditions: A405 value by the ELISA method, with FCA, 4 weeks later
Method: (§1) Each peptide synthesized in Example 2 was dissolved in PBS so as to make the concentration 200 μg/ml, the solution was mixed with the same volume of FCA, and the mixture after emulsification was subcutaneously injected into mice at the back (3 animals per group). 4 weeks later, the antibody titer in the serum or saliva against the peptide was assayed by an ELISA method.
The fimbrial protein of Porphyomonas gingivalis was adsorbed on each well of a 96-well microtiter plate for ELISA, and a dilution of the serum with PBS (1/10^5), a dilution of the saliva with PBS (1/500), or a solution obtained by adding each peptide or the fimbrial protein of Porphyomonas gingivalis is to the dilution of the serum or saliva to cause absorption was put in the well. Reaction was conducted at 37° C. for 1 hour, and then assay was conducted by a usual ELISA method.

Substance | Antibody titer Saliva (1/500) After absorption | Antibody titer Saliva (1/500) Before absorption | Antibody titer Serum (1/10^5) After absorption | Antibody titer Serum (1/10^5) Before absorption
Peptide 2: synthetic peptide, epitope of the 41 kD fimbrial subunit protein of Porphyomonas gingivalis; sequence in Table 1, not shown (EVKALTTELT) | 0.17 | 0.36 | 0.15 | 0.34
Peptide 3: synthetic peptide, epitope of the 41 kD fimbrial subunit protein of Porphyomonas gingivalis; sequence in Table 1, not shown (AENQEAAGLI) | 0.09 | 0.37 | 0.16 | 0.38
Peptide 4: synthetic peptide, epitope of the 41 kD fimbrial subunit protein of Porphyomonas gingivalis; sequence in Table 1, not shown (AAGLIMTAEP) | 0.12 | 0.49 | 0.13 | 0.52
Peptide 5: synthetic peptide, epitope of the 41 kD fimbrial subunit protein of Porphyomonas gingivalis; sequence in Table 1, not shown (TGSLTTFNGA) | 0.15 | 0.42 | 0.11 | 0.45
Peptide 6: synthetic peptide, epitope of the 41 kD fimbrial subunit protein of Porphyomonas gingivalis; sequence in Table 1, not shown (TFNGAYTPAN) | 0.11 | 0.39 | 0.12 | 0.41
Peptide 8: synthetic peptide, epitope of the 41 kD fimbrial subunit protein of Porphyomonas gingivalis; sequence in Table 1, not shown (ANGGTIHPTI) | 0.14 | 0.45 | 0.11 | 0.49
Peptide 9: synthetic peptide, epitope of the 41 kD fimbrial subunit protein of Porphyomonas gingivalis; sequence in Table 1, not shown (EGKTYYPVLV) | 0.13 | 0.34 | 0.13 | 0.32

tested on: not listed separately; assay: Immunization of mice with the peptides: body weight; format: in vivo; conditions: mice immunized with FCA emulsion, 3 animals per group
Method: as §1

Substance | Body weight (Average g)
Peptide 2: synthetic peptide, epitope of the 41 kD fimbrial subunit protein of Porphyomonas gingivalis; sequence in Table 1, not shown (EVKALTTELT) | 26 g
Peptide 3: synthetic peptide, epitope of the 41 kD fimbrial subunit protein of Porphyomonas gingivalis; sequence in Table 1, not shown (AENQEAAGLI) | 26 g
Peptide 4: synthetic peptide, epitope of the 41 kD fimbrial subunit protein of Porphyomonas gingivalis; sequence in Table 1, not shown (AAGLIMTAEP) | 27 g
Peptide 5: synthetic peptide, epitope of the 41 kD fimbrial subunit protein of Porphyomonas gingivalis; sequence in Table 1, not shown (TGSLTTFNGA) | 28 g
Peptide 6: synthetic peptide, epitope of the 41 kD fimbrial subunit protein of Porphyomonas gingivalis; sequence in Table 1, not shown (TFNGAYTPAN) | 26 g
Peptide 8: synthetic peptide, epitope of the 41 kD fimbrial subunit protein of Porphyomonas gingivalis; sequence in Table 1, not shown (ANGGTIHPTI) | 25 g
Peptide 9: synthetic peptide, epitope of the 41 kD fimbrial subunit protein of Porphyomonas gingivalis; sequence in Table 1, not shown (EGKTYYPVLV) | 26 g

tested on: Porphyomonas gingivalis; assay: not given; format: in vivo, guinea pig; conditions: with FCA, 500 μg/animal, inoculation on the 28th day, 24 hours later
Method: Each peptide synthesized in Example 2 was administered together with FIA (Freund's incomplete adjuvant) or FCA (Freund's complete adjuvant), as a water-in-oil type emulsifier, into the sole of the right hind leg of a guinea pig in an amount of 500 μg/animal/time. Thereafter, on the 28th day, 200 μl of a suspension of 10^11 cells/ml of the bacterium was intracutaneously inoculated into the right flank of the same guinea pig after the hair at the region was shaved. 24 hours later, the longest length and shortest length of the resultant red coloring were measured, and the product of them was calculated. From the product was calculated the inhibition rate.

Substance | Degree of redness Longest length × shortest length
Peptide 2: synthetic peptide, epitope of the 41 kD fimbrial subunit protein of Porphyomonas gingivalis; sequence in Table 1, not shown (EVKALTTELT) | 1179 mm^2
Peptide 3: synthetic peptide, epitope of the 41 kD fimbrial subunit protein of Porphyomonas gingivalis; sequence in Table 1, not shown (AENQEAAGLI) | 1155 mm^2
Peptide 4: synthetic peptide, epitope of the 41 kD fimbrial subunit protein of Porphyomonas gingivalis; sequence in Table 1, not shown (AAGLIMTAEP) | 851 mm^2
Peptide 5: synthetic peptide, epitope of the 41 kD fimbrial subunit protein of Porphyomonas gingivalis; sequence in Table 1, not shown (TGSLTTFNGA) | 1063 mm^2
Peptide 6: synthetic peptide, epitope of the 41 kD fimbrial subunit protein of Porphyomonas gingivalis; sequence in Table 1, not shown (TFNGAYTPAN) | 1112 mm^2
Peptide 8: synthetic peptide, epitope of the 41 kD fimbrial subunit protein of Porphyomonas gingivalis; sequence in Table 1, not shown (ANGGTIHPTI) | 1022 mm^2
Peptide 9: synthetic peptide, epitope of the 41 kD fimbrial subunit protein of Porphyomonas gingivalis; sequence in Table 1, not shown (EGKTYYPVLV) | 1265 mm^2

same assay, conditions: with FCA, relative to the FIA inoculation group

Substance | Inhibition rate
Peptide 2: synthetic peptide, epitope of the 41 kD fimbrial subunit protein of Porphyomonas gingivalis; sequence in Table 1, not shown (EVKALTTELT) | 39.5%
Peptide 3: synthetic peptide, epitope of the 41 kD fimbrial subunit protein of Porphyomonas gingivalis; sequence in Table 1, not shown (AENQEAAGLI) | 40.7%
Peptide 4: synthetic peptide, epitope of the 41 kD fimbrial subunit protein of Porphyomonas gingivalis; sequence in Table 1, not shown (AAGLIMTAEP) | 56.3%
Peptide 5: synthetic peptide, epitope of the 41 kD fimbrial subunit protein of Porphyomonas gingivalis; sequence in Table 1, not shown (TGSLTTFNGA) | 45.4%
Peptide 6: synthetic peptide, epitope of the 41 kD fimbrial subunit protein of Porphyomonas gingivalis; sequence in Table 1, not shown (TFNGAYTPAN) | 42.9%
Peptide 8: synthetic peptide, epitope of the 41 kD fimbrial subunit protein of Porphyomonas gingivalis; sequence in Table 1, not shown (ANGGTIHPTI) | 47.5%
Peptide 9: synthetic peptide, epitope of the 41 kD fimbrial subunit protein of Porphyomonas gingivalis; sequence in Table 1, not shown (EGKTYYPVLV) | 35.0%
